Read-outs that look alike come from different tables or passages of the source. Marks after values point to notes of the source that are not given here.
How the values were obtained:
mice = assay: Sedative effects in mice (spontaneous activities); type: in vivo; set-up: unit not given here; conditions: single dose 20 mg/kg
Method: Spontaneous activities of the mice were recorded by alternating current tube, Sedative effects were tested after single dose (20 mg/kg).

5-HT2A receptor = molecular target: T1, 5-HT2A receptor (Homo sapiens, UniProt P28223); assay: In-vitro competitive binding to 5-HT2A receptor, [3H]-Ketanserin, transformed HEK293 cells; conditions: for inhibition at 10 µM: read-out: 5-HT2A [3H]-Ketanserin inhibition percentage; for IC50 / Ki: affinity to 5-HT2A receptor, concentration gradient test; for inhibitory activity on 5-HT2A (in words): compared with Aripiprazole
T1 construct: expressed in transfected cells; host or cells: HEK293
Method: All test samples were dissolved in DMSO at a concentration of 0.01 mol/L, and then diluted with deionized water to 100 umol/L.
HEK293 cells were transformed with plasmid carriers containing the gene coding for 5-HT2A receptor protein by using calcium phosphate transformation. Stable cell strains which could stably express 5-HT2A receptor protein were obtained from the transformed cells by cultivating in a culture media containing G418, selecting monoclones of the cell and performing radioactive ligand binding assay.
Beckman LS 6500 Scintillation Counter.
HEK-293 cells were infected with recombined viruses containing various genes described above. […] Cells were centrifuged at 1000 rpm for 5 min Culture media was discarded, and cell bodies were collected and stored at −20° C. in a freezer. The cell bodies were resuspended with Tris-HCl reaction buffer during assay.
After incubation at 37° C. for 15 min, the reaction mixture was immediately transferred into ice bath to terminate the reaction; the reaction mixture was quickly filtered through GF/C glass cellulose filter on a Millipore cell sample collector, and was then washed with eluting solution (50 mM Tris-HCl, PH 7.7, 3 ml×3) and dried in a microwave for 8-9 min. The filter was transferred into a 0.5 ml centrifuge tube, and 500 μl lipid soluble scintillation fluid was added. The centrifuge tube was allowed to stand in darkness for more than 30 min. Radioactivity was determined by counting Inhibition percentage of each compound on isotope ligand binding was calculated according to the following equation:
inhibition percentage(I %)=cpm of overall binding tube−cpm of compound/cpm of overall binding tube−cpm of nonspecific binding tube×100%.
Each compound was tested in two duplicate test tubes and two separate tests were performed.

Kunming mice [1] = assay: Acetic acid-induced abdominal writhing test in mice; type: in vivo
Method: Kunming mice, SPF KM mice purchased from […] SLAC LABORATORY ANIMAL CO. LTD and kept in normal environment.
The compounds were dissolved in water for injection at a concentration of 4 mg/ml, 2 mg/ml and 1 mg/ml and were given intragastrically to animals.
(§1) Three different doses (10, 20, and 40 mg/kg) were administered to the test groups.
Aspirin was used as a positive control and acetic acid writhing test was used.
30 mice (half male and half female) weighing 18-23 g were divided into five groups, including negative control group, positive control group, low dose group, medium dose group and high dose group:
Mice in test group received test drug (10 mg/kg, 20 mg/kg, 40 mg/kg) via intragastric administration. Negative control group received physiological saline (20 ml/kg) via oral administration. Positive control group received aspirin (200 mg/kg) via oral administration. One hour later, each group received 0.7% acetic acid 10 ml/kg intraperitoneally. Five minutes later, the number of writhes was counted within the subsequent 15 min period; inhibition percentage of writhing response in each test group was calculated by the following equation: […]

Kunming mice [2] = assay: Hot-plate test in mice; type: in vivo; conditions: 1 h post dose
Method: Kunming mice, SPF KM mice were purchased from […] SLAC LABORATORY ANIMAL CO. LTD and kept in normal environment.
The compounds were dissolved in water for injection at a concentration of 4 mg/ml, 2 mg/ml and 1 mg/ml and were given subcutaneously to animals.
as §1
Morphine was used as a positive control and hot plate test was used.
30-40 mice (half male and half female) weighed from 18 to 23 gram were used. First, each mouse was placed on a hot plat at 55° C. to determine basic pain threshold for 2-3 times. Those animals with basic pain threshold of 5-30 s were qualified, unqualified mice were not used. 30 qualified mice were divided into five groups, including negative control group, positive control group, low-dose group, medium-dose group and high-dose group:
Mice in test groups received test sample solution (10 mg/kg, 20 mg/kg, 40 mg/kg) via subcutaneous injection in the neck. Positive control group received subcutaneous injection of morphine (2 mg/kg). One hour later, pain threshold values were determined for mice in each group as post-drug pain threshold. Percentage increase in pain threshold was calculated according to the following equation: […]

[3] = molecular target: T2, 5-HT reuptake by brain synapses (Rattus norvegicus, UniProt P31652); assay: [3H]5-HT reuptake test in rat brain synapses; type: biochemical; conditions: for inhibitory activity on 5-HT reuptake (in words): at 10 μmol/L, compared with Dutoxetine; for inhibition at 10 µM: final concentration 10 umol/L, rat brain synapses, read-out: 5-HTU [3H] 5-HT reuptake inhibition percentage Mean
T2 construct: forehead cortex was obtained for [^3H]5-HT, [^3H]NA reuptake test; from tissue; host or cells: rat (SD) forebrain cortex synaptosomes
Method: The method was as follows:
Male SD rats were killed by cervical dislocation, heads were immediately cut and brains were obtained and put on ice, related brain tissues were dissected (forehead cortex was obtained for [^3H]5-HT, [^3H]NA reuptake test, corpus striatum was obtained for [^3H]DA reuptake).
After the sample was weighed, 10 folds (V/W) ice cold 0.32 mol/L sucrose solution was added.
According to [a. […] 5-HT was added and after incubation in water bath at 37° C. for 10 min, the reaction mixture was immediately taken out of the water bath and 2 ml ice cold 150 mmol/L Tris-HCl was added to terminate the reaction. The sample was collected on a round glass fiber filter by vacuum filtration and washed three times with 3 ml ice cold Tris-HCl buffer. The filter membrane was removed, dried in a far-infrared oven for 15 min, then transferred into a EP tube, in which 1.5 ml scintillation fluid was added, left overnight and detected by a scintillation counter. The test sample was not added into solvent controlled overall binding tube or non-specific binding tube. 50 μl solvent was added into the overall binding tube, and in [^3H] 5-HT reuptake test, 600 μmol/L cocaine was added into the non-specific binding tube.

[4] = 10 mg/kg intragastric administration
[5] = 20 mg/kg intragastric administration
[6] = 40 mg/kg intragastric administration

T2 sequence (P31652 whole entry): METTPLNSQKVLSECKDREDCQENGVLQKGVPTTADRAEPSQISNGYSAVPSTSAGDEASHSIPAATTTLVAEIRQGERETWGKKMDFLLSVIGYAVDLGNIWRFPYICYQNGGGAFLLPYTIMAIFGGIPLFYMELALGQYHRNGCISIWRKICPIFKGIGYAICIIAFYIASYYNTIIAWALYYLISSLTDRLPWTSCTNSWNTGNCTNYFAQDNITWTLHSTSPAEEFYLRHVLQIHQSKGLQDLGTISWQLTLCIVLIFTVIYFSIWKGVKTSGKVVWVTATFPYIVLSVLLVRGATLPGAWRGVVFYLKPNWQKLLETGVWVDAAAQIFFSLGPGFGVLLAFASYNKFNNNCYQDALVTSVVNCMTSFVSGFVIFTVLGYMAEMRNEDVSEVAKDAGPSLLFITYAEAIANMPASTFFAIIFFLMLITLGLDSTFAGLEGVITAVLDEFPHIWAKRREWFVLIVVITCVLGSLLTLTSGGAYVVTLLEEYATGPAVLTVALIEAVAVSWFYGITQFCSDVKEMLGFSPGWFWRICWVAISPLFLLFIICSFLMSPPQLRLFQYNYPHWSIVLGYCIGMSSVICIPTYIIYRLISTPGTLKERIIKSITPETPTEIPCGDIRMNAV
T1 sequence (P28223 whole entry): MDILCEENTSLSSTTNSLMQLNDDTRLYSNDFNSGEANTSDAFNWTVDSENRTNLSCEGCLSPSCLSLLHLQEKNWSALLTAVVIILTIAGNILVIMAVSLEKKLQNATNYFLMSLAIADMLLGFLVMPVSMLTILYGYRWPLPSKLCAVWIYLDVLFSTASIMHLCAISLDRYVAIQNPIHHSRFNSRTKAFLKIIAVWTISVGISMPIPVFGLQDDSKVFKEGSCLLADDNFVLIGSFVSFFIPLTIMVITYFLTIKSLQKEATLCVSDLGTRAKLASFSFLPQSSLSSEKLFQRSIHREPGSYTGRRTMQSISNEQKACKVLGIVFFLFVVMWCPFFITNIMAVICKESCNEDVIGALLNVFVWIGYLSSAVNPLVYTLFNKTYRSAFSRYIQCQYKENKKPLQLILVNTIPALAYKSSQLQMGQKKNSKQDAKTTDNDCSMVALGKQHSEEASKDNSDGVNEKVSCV

SMILES: Fc1ccc2c(C3CCN(CCCn4cnc5ccc(F)cc54)CC3)noc2c1 [III-1, 6-fluoro-3-(1-(3-(6-fluoro-1H-benzo[d]imidazol-1-yl)propyl)piperidin-4-yl)benzo[d]isoxazole]
- Sedative effect (mice): 54*

SMILES: N#Cc1ccc2ccn(OCCN3CCC(c4noc5cc(F)ccc45)CC3)c2c1 [IV-1, 1-(2-(4-(6-fluorobenzo[d]isoxazol-3-yl)piperidin-1-yl)ethoxy)-1H-indole-6-carbonitrile]
- Sedative effect (mice): 20

SMILES: Fc1ccc2c(C3CCN(CCCn4cnc5ccccc54)CC3)noc2c1 [II-11, 3-(1-(3-(1H-benzo[d]imidazol-1-yl)propyl)piperidin-4-yl)-6-fluorobenzo[d]isoxazole]
- Sedative effect (mice): 0
- inhibition at 10 µM (5-HT2A receptor): 99.6%

SMILES: Fc1ccc2c(C3CCN(CCCCn4cnc5ccccc54)CC3)noc2c1 [II-12, 3-(1-(4-(1H-benzo[d]imidazol-1-yl)butyl)piperidin-4-yl)-6-fluorobenzo[d]isoxazole]
- Sedative effect (mice): 52*
- inhibition at 10 µM (5-HT2A receptor): 99.5%

SMILES: Fc1ccc2c(C3CCN(CCOn4nnc5ccc(Cl)cc54)CC3)noc2c1 [IV-3, 3-(1-(2-(6-chloro-1H-benzo[d][1,2,3]triazol-1-yloxy)ethyl)piperidin-4-yl)-6-fluorobenzo[d]isoxazole]
- Sedative effect (mice): 67*
- inhibition at 10 µM (5-HT2A receptor): 92.8%

SMILES: N#Cc1ccc2ccn(OCCCN3CCC(c4noc5cc(F)ccc45)CC3)c2c1 [IV-2, 1-(3-(4-(6-fluorobenzo[d]isoxazol-3-yl)piperidin-1-yl)propoxy)-1H-indole-6-carbonitrile]
- Sedative effect (mice): 52*

SMILES: N#Cc1ccc2ncn(CCCCN3CCC(c4noc5cc(F)ccc45)CC3)c2c1 [III-3, 1-(4-(4-(6-fluorobenzo[d]isoxazol-3-yl)piperidin-1-yl)butyl)-1H-benzo[d]imidazole-6-carbonitrile]
- Sedative effect (mice): 52*

SMILES: Fc1ccc2c(C3CCN(CCCn4ncc5ccccc54)CC3)noc2c1 [II-13, 3-(1-(3-(1H-indazol-1-yl)propyl)piperidin-4-yl)-6-fluorobenzo[d]isoxazole]
- Sedative effect (mice): 66*

SMILES: Fc1ccc2c(C3CCN(CCCCn4ccc5ccc(Cl)cc54)CC3)noc2c1 [II-10, 3-(1-(4-(6-chloro-1H-indol-1-yl)butyl)piperidin-4-yl)-6-fluorobenzo[d]isoxazole]
- Sedative effect (mice): 99**

SMILES: N#Cc1ccc2ccn(CCCN3CCC(c4noc5cc(F)ccc45)CC3)c2c1 [II-6, 1-(3-(4-(6-fluorobenzo[d]isoxazol-3-yl)piperidin-1-yl)propyl)-1H-indole-6-carbonitrile]
- Inhibition percentage of writhing response (Kunming mice [1]; [4]): 74.09* %
- Inhibition percentage of writhing response (Kunming mice [1]; [5]): 69.55%
- Inhibition percentage of writhing response (Kunming mice [1]; [6]): 100.0** %
- Sedative effect (mice): 75**
- IC50 (5-HT2A receptor): 4.78 nM
- Ki (5-HT2A receptor): 3.22 nM
- inhibitory activity on 5-HT2A (in words) (5-HT2A receptor): potent inhibitory activities
- inhibition at 10 µM (5-HT2A receptor; final concentration 10 umol/L): 100%
- Percentage increase in pain threshold (Kunming mice [2]; 10 mg/kg S.c.): 41.11%
- Percentage increase in pain threshold (Kunming mice [2]; 20 mg/kg S.c.): 73.68* %
- Percentage increase in pain threshold (Kunming mice [2]; 40 mg/kg S.c.): 72.38* %
- inhibitory activity on 5-HT reuptake (in words) [3]: potent inhibitory activities
- inhibition at 10 µM [3]: 96.7%

SMILES: Fc1ccc2c(C3CCN(CCCCn4ccc5ccccc54)CC3)noc2c1 [II-3, 3-(1-(4-(1H-indol-1-yl)butyl)piperidin-4-yl)-6-fluorobenzo[d]isoxazole]
- Inhibition percentage of writhing response (Kunming mice [1]; [4]): 98.65** %
- Inhibition percentage of writhing response (Kunming mice [1]; [5]): 100.0** %
- Inhibition percentage of writhing response (Kunming mice [1]; [6]): 100.0** %
- Sedative effect (mice): 35
- IC50 (5-HT2A receptor): 1.66 nM
- Ki (5-HT2A receptor): 1.12 nM
- inhibitory activity on 5-HT2A (in words) (5-HT2A receptor): potent inhibitory activities
- inhibition at 10 µM (5-HT2A receptor; final concentration 10 umol/L): 100%
- Percentage increase in pain threshold (Kunming mice [2]; 10 mg/kg S.c.): 95.48* %
- Percentage increase in pain threshold (Kunming mice [2]; 20 mg/kg S.c.): 194** %
- Percentage increase in pain threshold (Kunming mice [2]; 40 mg/kg S.c.): 133%
- inhibitory activity on 5-HT reuptake (in words) [3]: potent inhibitory activities
- inhibition at 10 µM [3]: 95.9%

SMILES: Fc1ccc2c(C3CCN(CCCn4ccc5ccccc54)CC3)noc2c1 [II-2, 3-(1-(3-(1H-indol-1-yl)propyl)piperidin-4-yl)-6-fluorobenzo[d]isoxazole]
- Sedative effect (mice): 44*

SMILES: Fc1ccc2c(C3CCN(CCCCn4ccc5ccc(F)cc54)CC3)noc2c1 [II-8, 6-fluoro-3-(1-(4-(6-fluoro-1H-indol-1-yl)butyl)piperidin-4-yl)benzo[d]isoxazole]
- Inhibition percentage of writhing response (Kunming mice [1]; [4]): 95.88* %
- Inhibition percentage of writhing response (Kunming mice [1]; [5]): 96.46** %
- Inhibition percentage of writhing response (Kunming mice [1]; [6]): 100.0** %
- Sedative effect (mice): 42*
- IC50 (5-HT2A receptor): 5.33 nM
- Ki (5-HT2A receptor): 2.79 nM
- inhibitory activity on 5-HT2A (in words) (5-HT2A receptor): potent inhibitory activities
- inhibition at 10 µM (5-HT2A receptor; final concentration 10 umol/L): 100%
- Percentage increase in pain threshold (Kunming mice [2]; 10 mg/kg S.c.): 97.49%
- Percentage increase in pain threshold (Kunming mice [2]; 20 mg/kg S.c.): 160.50** %
- Percentage increase in pain threshold (Kunming mice [2]; 40 mg/kg S.c.): 172.81* %
- inhibitory activity on 5-HT reuptake (in words) [3]: potent inhibitory activities
- inhibition at 10 µM [3]: 107%

SMILES: COC(=O)c1ccc2ccn(CCCN3CCC(c4noc5cc(F)ccc45)CC3)c2c1 [II-7, methyl 1-(3-(4-(6-fluorobenzo[d]isoxazol-3-yl)piperidin-1-yl)propyl)-1H-indole-6-carboxylate]
- Sedative effect (mice): 96**

SMILES: CN1CC[C@]23c4c5ccc(O)c4O[C@H]2[C@@H](O)C=C[C@H]3[C@H]1C5 [Morphine, reference compound]
- Percentage increase in pain threshold (Kunming mice [2]; positive control, 2 mg/kg S.c., hot plate 55° C.): 202.5** %

SMILES: Fc1ccc2c(C3CCN(CCCn4ccc5ccc(F)cc54)CC3)noc2c1 [II-5, 6-fluoro-3-(1-(3-(6-fluoro-1H-indol-1-yl)propyl)piperidin-4-yl)benzo[d]isoxazole]
- Sedative effect (mice): 65*

SMILES: Fc1ccc2c(C3CCN(CCn4ccc5ccccc54)CC3)noc2c1 [II-1, 3-(1-(2-(1H-indol-1-yl)ethyl)piperidin-4-yl)-6-fluorobenzo[d]isoxazole]
- Sedative effect (mice): 43*
- inhibition at 10 µM (5-HT2A receptor): 99.5%

SMILES: CC(=O)Oc1ccccc1C(=O)O [Aspirin, reference compound]
- Inhibition percentage of writhing response (Kunming mice [1]; positive control, 200 mg/kg oral, 1 h before acetic acid): 95.05** %

SMILES: Fc1ccc2c(C3CCN(CCCCCn4ccc5ccccc54)CC3)noc2c1 [II-4, 3-(1-(5-(1H-indol-1-yl)pentyl)piperidin-4-yl)-6-fluorobenzo[d]isoxazole]
- Sedative effect (mice): 91**
- inhibition at 10 µM (5-HT2A receptor): 99.9%
